Assay results: PMC12951562, “SH2scan: Mapping SH2 Domain-Ligand Binding Selectivity for Inhibitors and Degraders” (Journal of Medicinal Chemistry, 2026)
Where two headings read alike, the source gives them in different places. Non-standard residues stand in square brackets, D forms with d. Residues, ends and D or L forms follow the SMILES beside them. *: point of attachment. pY = N[C@@H](Cc1ccc(OP(=O)(O)O)cc1)C(=O)O; Caffeoyl = O=C(/C=C/c1ccc(O)c(O)c1)*

Experiments:
Test in all cases: biochemical
Assay type in all cases: binding
TEC = biological target: T1, TEC (Homo sapiens, UniProt P42680); settings: for percent of DMSO vehicle control at 10 µM / remaining activity at 10 µM: read-out: percent of DMSO vehicle control
T1 construct: made in house; host or cells: HEK293 (transient transfection), unpurified extract
T1 sequence (P42680 1-631): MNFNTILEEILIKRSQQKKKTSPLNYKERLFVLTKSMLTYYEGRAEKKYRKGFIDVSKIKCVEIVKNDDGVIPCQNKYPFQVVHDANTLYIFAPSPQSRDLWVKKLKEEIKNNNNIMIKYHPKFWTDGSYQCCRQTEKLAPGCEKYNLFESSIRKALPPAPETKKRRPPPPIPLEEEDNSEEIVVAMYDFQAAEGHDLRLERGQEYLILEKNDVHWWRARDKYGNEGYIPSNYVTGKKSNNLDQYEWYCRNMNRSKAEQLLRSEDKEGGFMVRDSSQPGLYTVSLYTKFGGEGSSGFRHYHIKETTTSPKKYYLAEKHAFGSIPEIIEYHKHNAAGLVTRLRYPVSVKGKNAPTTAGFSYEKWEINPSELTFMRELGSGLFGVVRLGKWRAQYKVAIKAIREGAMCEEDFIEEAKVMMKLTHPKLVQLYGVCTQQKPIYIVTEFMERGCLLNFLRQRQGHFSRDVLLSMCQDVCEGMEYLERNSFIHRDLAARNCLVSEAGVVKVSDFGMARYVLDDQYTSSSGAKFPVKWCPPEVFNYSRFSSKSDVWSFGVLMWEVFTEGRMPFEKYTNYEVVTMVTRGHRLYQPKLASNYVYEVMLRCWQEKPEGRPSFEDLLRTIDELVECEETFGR

PLCG2(SH2dom.C-term.) = biological target: T2, PLCG2(SH2dom.C-term.) (Homo sapiens, UniProt P16885); settings: for remaining activity at 10 µM: read-out: percent of DMSO vehicle control
T2 construct: SH2dom.C-term. denotes SH2 domain closest to C-terminus of protein; made in house; host or cells: HEK293 (transient transfection, unpurified extract)
T2 sequence (P16885 646-735 limits assumed): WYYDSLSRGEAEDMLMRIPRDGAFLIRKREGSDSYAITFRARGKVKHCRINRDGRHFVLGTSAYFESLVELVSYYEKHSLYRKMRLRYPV

PIK3R1(SH2dom.N-term.) = biological target: T3, PIK3R1(SH2dom.N-term.) (Homo sapiens, UniProt P27986); settings: for remaining activity at 10 µM: read-out: percent of DMSO vehicle control
T3 construct: SH2dom.N-term. denotes SH2 domain closest to N-terminus of protein; made in house; host or cells: HEK293 (transient transfection, unpurified extract)

LNK (SH2B3) = biological target: T4, LNK (SH2B3) (Homo sapiens, UniProt Q9UQQ2); settings: for remaining activity at 10 µM: read-out: percent of DMSO vehicle control
T4 construct: the DNA-tagged SH2 domain concentrations used in this study were <0.1 nM; made in house; host or cells: HEK293 (transient transfection, unpurified extract)

SHC1 = biological target: T5, SHC1 (Homo sapiens, UniProt P29353); settings: for remaining activity at 10 µM: read-out: percent of DMSO vehicle control
T5 construct: made in house; host or cells: HEK293 (transient transfection), unpurified extract
T5 sequence (P29353 1-583): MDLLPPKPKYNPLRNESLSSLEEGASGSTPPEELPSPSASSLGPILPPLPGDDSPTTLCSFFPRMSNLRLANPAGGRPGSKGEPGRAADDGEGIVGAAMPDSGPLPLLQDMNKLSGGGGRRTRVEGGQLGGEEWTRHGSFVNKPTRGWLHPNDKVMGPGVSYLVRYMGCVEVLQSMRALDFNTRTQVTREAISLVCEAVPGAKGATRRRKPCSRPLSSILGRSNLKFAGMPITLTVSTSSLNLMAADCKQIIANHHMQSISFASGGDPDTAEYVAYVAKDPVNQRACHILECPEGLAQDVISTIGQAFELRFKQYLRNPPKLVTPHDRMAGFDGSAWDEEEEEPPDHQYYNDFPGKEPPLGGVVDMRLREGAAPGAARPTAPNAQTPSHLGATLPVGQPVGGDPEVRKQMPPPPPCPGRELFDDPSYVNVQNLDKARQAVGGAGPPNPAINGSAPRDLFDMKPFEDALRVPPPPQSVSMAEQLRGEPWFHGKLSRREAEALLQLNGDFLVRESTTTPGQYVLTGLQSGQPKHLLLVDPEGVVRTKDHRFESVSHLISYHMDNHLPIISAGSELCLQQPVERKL

PLCG2(SH2dom.N-term.) = biological target: T6, PLCG2(SH2dom.N-term.) (Homo sapiens, UniProt P16885); settings: for remaining activity at 10 µM: read-out: percent of DMSO vehicle control
T6 construct: SH2dom.N-term. denotes SH2 domain closest to N-terminus of protein; made in house; host or cells: HEK293 (transient transfection, unpurified extract)
T6 sequence (P16885 532-635 limits assumed): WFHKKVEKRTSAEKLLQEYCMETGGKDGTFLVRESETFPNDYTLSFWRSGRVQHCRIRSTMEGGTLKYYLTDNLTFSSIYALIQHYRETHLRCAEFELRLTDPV

SHC2 = biological target: T7, SHC2 (Homo sapiens, UniProt P98077); settings: for remaining activity at 10 µM: read-out: percent of DMSO vehicle control
T7 construct: made in house; host or cells: HEK293 (transient transfection), unpurified extract
T7 sequence (P98077 1-582): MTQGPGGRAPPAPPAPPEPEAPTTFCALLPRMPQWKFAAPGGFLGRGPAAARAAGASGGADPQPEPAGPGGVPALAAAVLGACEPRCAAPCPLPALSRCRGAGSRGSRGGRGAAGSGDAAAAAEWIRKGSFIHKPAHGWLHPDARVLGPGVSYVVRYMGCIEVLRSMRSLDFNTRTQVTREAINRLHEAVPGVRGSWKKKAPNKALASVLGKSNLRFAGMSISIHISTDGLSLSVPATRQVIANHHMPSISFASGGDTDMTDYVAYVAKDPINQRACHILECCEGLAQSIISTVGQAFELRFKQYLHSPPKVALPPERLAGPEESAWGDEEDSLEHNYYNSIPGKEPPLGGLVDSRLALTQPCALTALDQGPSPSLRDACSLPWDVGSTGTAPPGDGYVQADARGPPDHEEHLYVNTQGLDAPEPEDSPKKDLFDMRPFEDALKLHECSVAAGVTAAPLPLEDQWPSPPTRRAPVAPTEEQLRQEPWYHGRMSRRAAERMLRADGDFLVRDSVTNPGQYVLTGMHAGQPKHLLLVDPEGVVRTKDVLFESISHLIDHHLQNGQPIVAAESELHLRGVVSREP

PIK3R2(SH2dom.N-term.) = biological target: T8, PIK3R2(SH2dom.N-term.) (Homo sapiens, UniProt O00459); settings: for remaining activity at 10 µM: read-out: percent of DMSO vehicle control
T8 construct: SH2dom.N-term. denotes SH2 domain closest to N-terminus of protein; made in house; host or cells: HEK293 (transient transfection, unpurified extract)

LCK = biological target: T9, LCK (Homo sapiens, UniProt P06239); settings: for percent of DMSO vehicle control at 10 µM / remaining activity at 10 µM: read-out: percent of DMSO vehicle control
T9 construct: the DNA-tagged SH2 domain concentrations used in this study were <0.1 nM; made in house; host or cells: HEK293 (transient transfection, unpurified extract)
T9 sequence (P06239 127-224 limits assumed): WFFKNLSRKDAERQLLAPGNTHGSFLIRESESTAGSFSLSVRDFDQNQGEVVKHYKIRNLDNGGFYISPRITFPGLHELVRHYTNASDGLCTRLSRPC

T3 sequence (P27986 333-428 limits assumed): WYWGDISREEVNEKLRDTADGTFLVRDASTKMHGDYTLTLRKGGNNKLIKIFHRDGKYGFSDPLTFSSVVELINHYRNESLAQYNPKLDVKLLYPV
T4 sequence (Q9UQQ2 364-462 limits assumed): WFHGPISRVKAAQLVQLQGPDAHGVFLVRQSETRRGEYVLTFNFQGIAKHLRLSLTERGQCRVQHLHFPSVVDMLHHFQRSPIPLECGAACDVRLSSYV
T8 sequence (O00459 330-425 limits assumed): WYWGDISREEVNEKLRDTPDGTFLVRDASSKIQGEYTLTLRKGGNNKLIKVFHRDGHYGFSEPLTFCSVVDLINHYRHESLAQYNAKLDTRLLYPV

SMILES	percent of DMSO vehicle control at 10 µM (TEC) [%]	remaining activity at 10 µM (PLCG2(SH2dom.C-term.)) [%]	remaining activity at 10 µM (PIK3R1(SH2dom.N-term.)) [%]	remaining activity at 10 µM (LNK (SH2B3)) [%]	remaining activity at 10 µM (SHC1) [%]	remaining activity at 10 µM (PLCG2(SH2dom.N-term.)) [%]	remaining activity at 10 µM (SHC2) [%]	remaining activity at 10 µM (PIK3R2(SH2dom.N-term.)) [%]	percent of DMSO vehicle control at 10 µM (LCK) [%]	remaining activity at 10 µM (TEC; primary screen, 10 μM) [%]	remaining activity at 10 µM (PLCG2(SH2dom.C-term.); primary screen, 10 μM) [%]	remaining activity at 10 µM (PIK3R1(SH2dom.N-term.); primary screen, 10 μM) [%]	remaining activity at 10 µM (LNK (SH2B3); primary screen, 10 μM) [%]	remaining activity at 10 µM (SHC1; primary screen, 10 μM) [%]	remaining activity at 10 µM (PLCG2(SH2dom.N-term.); primary screen, 10 μM) [%]	remaining activity at 10 µM (SHC2; primary screen, 10 μM) [%]	remaining activity at 10 µM (PIK3R2(SH2dom.N-term.); primary screen, 10 μM) [%]	remaining activity at 10 µM (LCK; primary screen, 10 μM) [%]	further results
CC[C@H](C)[C@H](NC(=O)[C@H](CCC(=O)O)NC(=O)[C@H](CCC(=O)O)NC(=O)[C@H](Cc1ccc(OP(=O)(O)O)cc1)NC(C)=O)C(=O)N[C@@H](CCC(=O)O)C(N)=O [Ac-pYEEIE-NH2] (Ac-[pY]EEIE-NH2)	–	–	–	–	–	–	–	–	–	–	–	–	–	–	–	–	–	–	percent of DMSO vehicle control (TEC; primary screen, 10 μM): 119.3%; percent of DMSO vehicle control (PLCG2(SH2dom.C-term.); primary screen, 10 μM): 90.9%; percent of DMSO vehicle control (PIK3R1(SH2dom.N-term.); primary screen, 10 μM): 87.7%; percent of DMSO vehicle control (LNK (SH2B3); primary screen, 10 μM): 72.0%; percent of DMSO vehicle control (SHC1; primary screen, 10 μM): 105.0%; percent of DMSO vehicle control (PLCG2(SH2dom.N-term.); primary screen, 10 μM): 92.3±3.3%; percent of DMSO vehicle control (SHC2; primary screen, 10 μM): 138.0%; percent of DMSO vehicle control (PIK3R2(SH2dom.N-term.); primary screen, 10 μM): 74.1%; percent of DMSO vehicle control (LCK; primary screen, 10 μM): 44.2±3.3%
CC(=O)N[C@@H](Cc1ccc(CP(=O)(O)O)cc1)C(=O)NC1(C(=O)N[C@@H](CC(N)=O)C(=O)NCCCc2c(O)ccc3ccccc23)CCCCC1 [CGP78850]	126.5 ± 0.2	104 ± 2.7	109 ± 5.7	79.1 ± 5.6	49.8 ± 6.2	87.2 ± 19.7	100 ± 8.5	141 ± 24.2	46 ± 3.7	–	–	–	–	–	–	–	–	–	–
CC[C@H](C)[C@H](NC(=O)[C@H](CCC(=O)O)NC(=O)[C@H](CCC(=O)O)NC(=O)[C@H](Cc1ccc(OP(=O)(O)O)cc1)NC(=O)/C=C/c1ccc(O)c(O)c1)C(=O)N[C@@H](CCC(=O)O)C(=O)O [Caffeic acid-pYEEIE] (Caffeoyl-[pY]EEIE-OH)	0.1	1.1 ± 0.1	0.7 ± 0.1	0.4 ± 0.1	0	1.2 ± 0.1	0.3 ± 0.1	0	0	–	–	–	–	–	–	–	–	–	Kd (TEC): 39 ± 7.8 nM; Kd (PLCG2(SH2dom.C-term.)): 660 ± 700 nM; Kd (PIK3R1(SH2dom.N-term.)): 140 ± 17 nM; Kd (LNK (SH2B3)): 500 ± 410 nM; Kd (SHC1): 320 ± 280 nM; Kd (PLCG2(SH2dom.N-term.)): 1070 ± 320 nM; Kd (SHC2): 580 ± 330 nM; Kd (PIK3R2(SH2dom.N-term.)): 180 ± 52 nM; Kd (LCK): 3.7 ± 0.62 nM
O=C(CCl)Nc1cccc(CNC(=O)[C@H](Cc2ccc(OP(=O)(O)O)cc2)NC(=O)Cc2ccc(F)cc2)c1 [MN551]	–	–	–	–	–	–	–	–	–	120	133	99.8 ± 1.6	17.7 ± 5.5	112	109	82.9 ± 1.7	101	98.7 ± 0.5	Kd (LNK (SH2B3); dose-response, read-out: KD): 3900 ± 710 nM
NC(=O)CC[C@H](NC(=O)[C@@H]1CC[C@@H]2CCN(C(=O)CCCCCC#Cc3cccc4c3CN(C3CCC(=O)NC3=O)C4=O)C[C@H](NC(=O)c3cc4cc(C(F)(F)P(=O)(O)O)ccc4[nH]3)C(=O)N21)C(=O)NC(c1ccccc1)c1ccccc1 (stereo partly shown) [SD-36]	121 ± 3	86.3 ± 12.4	124	86.6	62 ± 8.8	73.8 ± 3.7	94.9 ± 2.3	132	97.3 ± 3.9	–	–	–	–	–	–	–	–	–	–
CC(=O)N1CC[C@H]2CC[C@@H](C(=O)N[C@@H](CCC(N)=O)C(=O)NC(c3ccccc3)c3ccccc3)N2C(=O)[C@@H](NC(=O)c2cc3cc(C(F)(F)P(=O)(O)O)ccc3[nH]2)C1 [SI-109]	135	98.7 ± 6.9	134	81.4 ± 6.7	112	112	131	130	127	–	–	–	–	–	–	–	–	–	–
C/C(=C\C(=O)N[C@H](C(=O)N1CCC[C@H]1C(=O)N(c1ccccc1)c1ccc(I)cc1)C(C)(C)C)c1ccc(OP(=O)(O)O)cc1 [STAT6-IN-1]	–	–	–	–	–	–	–	–	–	75.1 ± 3.7	7.5 ± 0.6	44.8 ± 5	6.9 ± 3.8	48.2 ± 4.5	20.7 ± 29.3	47.3 ± 3.3	48.2 ± 5.7	48.3 ± 1.3	Kd (PLCG2(SH2dom.C-term.); dose-response, read-out: KD): 3800 ± 500 nM; Kd (LNK (SH2B3); dose-response, read-out: KD): 2300 ± 140 nM; Kd (PLCG2(SH2dom.N-term.); dose-response, read-out: KD): 550 ± 14 nM
CC(C)(C)[C@H](NC(=O)/C=C/c1ccc(OP(=O)(O)O)cc1)C(=O)N1CCC[C@H]1C(=O)N(c1ccccc1)c1ccc(I)cc1 [STAT6-IN-3]	–	–	–	–	–	–	–	–	–	136 ± 22.9	75.3 ± 10	85.6 ± 12.9	62 ± 5.7	62.5 ± 13.9	51.6 ± 17.6	85.2 ± 11.3	88.4 ± 18.2	72 ± 20.4	–
O=C(COc1ccc2cc(C(=O)Nc3ccccc3)ccc2c1)NCc1ccc(OP(=O)(O)O)c(OP(=O)(O)O)c1 [Stafib-1]	–	–	–	–	–	–	–	–	–	159	80.4 ± 8.2	88.8 ± 24.3	94.8 ± 14.4	67.3 ± 22.1	72.6 ± 27.2	83.4 ± 24.4	97.2 ± 21.5	97.4 ± 7.6	–
